From patent US10105367B2, “Therapeutic thiophene-, furan-, and pyridine-fused azolopyrimidin-5-(6h)-ones” (Dart Neuroscience (Cayman) Ltd., priority 2012, dated 2018)
Several values for one entry are separate records, joined by “and”; a condition that tells them apart may be missing. Identical values can stand only once.

target: human PDE1B (Homo sapiens (Human), UniProt Q01064); test: PDE1B inhibitory assay (IMAP TR-FRET); conditions: PDE1B pIC50, negative log of half-maximal molar inhibitory concentration; 200 nM FAM-cAMP, Calmodulin, CaCl2

SMILES	IC50
COc1ccc(Cn2c(=O)n3ncnc3c3cc(N4CCN(S(C)(=O)=O)CC4)cnc32)cc1 [Example 203]	100 to 1000 nM
O=c1n(Cc2ccccc2)c2sc3c(c2c2ncnn12)CCCC3 [Example 84]	100 to 1000 nM
O=c1n(Cc2ccccc2Cl)c2sccc2c2ncnn12 [Example 1, 6-(2-Chlorobenzyl)thieno[3,2-e][1,2,4]triazolo[1,5-c]pyrimidin-5(6H)-one]	1000 to 10000 nM
COc1ccc(Cn2c(=O)n3ncnc3c3ccc(CN4Cc5ccccc5C4)nc32)cc1 [Example 264]	100 to 1000 nM
COc1ccc(Cn2c(=O)n3ncnc3c3c4c(sc32)CN(C2CS(=O)(=O)C2)CC4)cc1 [Example 124]	100 to 1000 nM
O=c1n(Cc2ccc(Cl)cc2)c2sc3c(c2c2ncnn12)CCOC3 [Example 87]	100 to 1000 nM
COc1ccc(Cn2c(=O)n3ncnc3c3c(C)c(CN4C[C@@H](C)N[C@@H](C)C4)sc32)cc1 [Example 72]	100 to 1000 nM
Cc1sc2c(c1C)c1ncnn1c(=O)n2Cc1ccc(Cl)cc1 [Example 26]	100 to 1000 nM
C[C@@H]1CN(Cc2cnc3c(c2)c2ncnn2c(=O)n3Cc2ccc(OC(F)(F)F)cc2)C[C@H](C)O1 [Example 273, 9-(((2S,6R)-2,6-Dimethylmorpholino)methyl)-6-(4-(trifluoromethoxy)benzyl)pyrido[3,2-e][1,2,4]triazolo[1,5-c]pyrimidin-5(6H)-one]	100 to 1000 nM and 1000 to 10000 nM
COc1ccc(Cn2c(=O)n3ncnc3c3nc(N(C)C4CCN(C)CC4)cnc32)cc1 [Example 195]	1000 to 10000 nM
COc1ccc(Cn2c(=O)n3ncnc3c3cc(CN4CCCN(C(C)=O)CC4)cnc32)cc1 [Example 234]	100 to 1000 nM
C[C@@H]1CN(Cc2cnc3c(c2)c2ncnn2c(=O)n3Cc2ccc(Cl)c(Cl)c2)C[C@H](C)O1 [Example 295]	100 to 1000 nM
COc1ccc(Cn2c(=O)n3ncnc3c3cc(N4C[C@@H](C)O[C@@H](C)C4)cnc32)cc1 [Example 201]	100 to 1000 nM
COc1ccc(Cn2c(=O)n3ncnc3c3ccsc32)cc1 [Example 27]	100 to 1000 nM
CCOc1ccc(Cn2c(=O)n3ncnc3c3cc(CN4C[C@@H](C)O[C@@H](C)C4)cnc32)cc1 [Example 301]	100 to 1000 nM
O=c1n(Cc2ccc(C(F)(F)F)cc2)c2sc3c(c2c2ncnn12)CCOC3 [Example 89]	1000 to 10000 nM
COc1ccc(Cn2c(=O)n3ncnc3c3cc(CN4CCOC(C)(C)C4)cnc32)cc1 [Example 223]	100 to 1000 nM
COc1ccc(Cn2c(=O)n3ncnc3c3ccc(CN4CCN(S(C)(=O)=O)CC4)nc32)cc1 [Example 261]	100 to 1000 nM
O=c1n(Cc2ccc(-c3ccccc3)cc2)c2sc3c(c2c2ncnn12)CCCC3 [Example 86]	1000 to 10000 nM
C[C@@H]1CN(Cc2cnc3c(c2)c2ncnn2c(=O)n3Cc2ccc(Cl)c(F)c2)C[C@H](C)O1 [Example 298]	100 to 1000 nM

same assay, conditions: negative log of half-maximal molar inhibitory concentration; 200 nM FAM-cAMP, Calmodulin, CaCl2

SMILES	PDE1B pIC50
COc1ccc(Cn2c(=O)n3ncnc3c3cc(CN4CCN(S(C)(=O)=O)CC4)sc32)cc1 [Example 35]	>7
O=c1n(Cc2ccc(-c3ccccc3)cc2)c2sccc2c2ncnn12 [Example 4]	<5
CCN1CCN(Cc2cc3c(s2)n(Cc2ccc(OC)cc2)c(=O)n2ncnc32)CC1=O [Example 34]	>7
COc1ccc(Cn2c(=O)n3ncnc3c3c(C)c(CN4CCN(S(C)(=O)=O)CC4)sc32)cc1 [Example 63]	>7
COc1ccc(Cn2c(=O)n3ncnc3c3c4c(sc32)CN(CC2(C)COC2)CC4)cc1 [Example 111]	>7
COc1ccc(Cn2c(=O)n3ncnc3c3cc(CN4C[C@@H](C)O[C@@H](C)C4)sc32)cc1 [Example 33]	>7
COc1ccc(Cn2c(=O)n3ncnc3c3c(C)c(CN4CC5CC4CO5)sc32)cc1 (stereo not drawn) [Example 65]	>7
COc1ccc(Cn2c(=O)n3ncnc3c3c(C)c(CNC4CC4)sc32)cc1 [Example 57]	>7
COc1ccc(Cn2c(=O)n3ncnc3c3c(C)c(CN4CC5CCC(C4)O5)sc32)cc1 [Example 67]	>7
COc1ccc(Cn2c(=O)n3ncnc3c3c4c(sc32)CN(C(=O)[C@@H]2CCOC2)CC4)cc1 [Example 169]	>7
